Legend:
SIRT1 [1] = target: T1, SIRT1 (Homo sapiens, UniProt Q96EB6); assay: Trp mass spectrometry assay of SIRT1 activity; format: biochemical; details: for Emax: read-out: Trp % Fold Act
T1 sequence (Q96EB6 1-747): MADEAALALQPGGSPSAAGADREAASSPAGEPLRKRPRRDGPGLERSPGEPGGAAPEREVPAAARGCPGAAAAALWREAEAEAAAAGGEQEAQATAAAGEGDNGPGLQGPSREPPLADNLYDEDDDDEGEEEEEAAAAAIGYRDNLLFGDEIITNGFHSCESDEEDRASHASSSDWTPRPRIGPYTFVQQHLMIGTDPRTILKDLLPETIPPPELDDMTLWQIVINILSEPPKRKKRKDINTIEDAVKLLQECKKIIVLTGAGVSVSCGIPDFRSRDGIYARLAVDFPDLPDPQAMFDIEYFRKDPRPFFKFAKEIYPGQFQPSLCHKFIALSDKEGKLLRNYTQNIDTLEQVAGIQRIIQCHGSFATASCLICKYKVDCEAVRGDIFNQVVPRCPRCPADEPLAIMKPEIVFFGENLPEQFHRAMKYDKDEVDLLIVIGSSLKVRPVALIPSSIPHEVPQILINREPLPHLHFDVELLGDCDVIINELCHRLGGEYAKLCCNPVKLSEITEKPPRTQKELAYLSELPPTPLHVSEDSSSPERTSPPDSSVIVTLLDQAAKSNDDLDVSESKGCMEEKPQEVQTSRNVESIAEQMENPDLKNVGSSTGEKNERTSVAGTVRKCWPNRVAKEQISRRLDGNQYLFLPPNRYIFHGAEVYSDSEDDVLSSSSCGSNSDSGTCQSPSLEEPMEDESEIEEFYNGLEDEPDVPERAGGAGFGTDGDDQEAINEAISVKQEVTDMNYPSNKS
Procedure, shortened: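 Activation readout: EC1.5 (concentration raising activity 50% over control) and percent maximum activation, from mass-spec quantitation of OAADPR or deacetylated Trp peptide. Reaction: 0.5 μM acetylated Trp peptide, 120 μM βNAD+, 10 nM bacterially expressed N-His SIRT1, pH 7.5 HEPES buffer with […], 25 min at 25° C.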

SIRT1 [2] = target: T1, SIRT1; assay: TAMRA based mass spectrometry assay of SIRT1 activity; format: biochemical; details: for Emax: read-out: TAMRA % Fold Act
Procedure, shortened: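 Deacetylation of a biotinylated, TAMRA-tagged p53-based peptide (0.5 μM) by 10 nM His-tagged SIRT1 with 120 μM βNAD+, 25 °C for 25 min, pH 8 Tris-acetate buffer, across a compound concentration range. Quenched by formic acid and read by mass spec as product peptide or OAADPR; activity relative to DMSO reactions, nicotinamide defining maximal inhibition.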

[3] = concentration of test compound giving 150% activation of SIRT1, Trp peptide substrate
[4] = percent maximum fold activation of SIRT1, Trp peptide substrate
[5] = concentration of test compound giving 150% activation of SIRT1, TAMRA peptide substrate
[6] = percent maximum fold activation of SIRT1, TAMRA peptide substrate
[7] = Trp assay, concentration giving 150% activation of SIRT1
[8] = Trp assay, percent maximum fold activation
[9] = TAMRA assay, concentration giving 150% activation of SIRT1
[10] = TAMRA assay, percent maximum fold activation
[11] = Trp peptide substrate, concentration giving 150% activation of SIRT1
[12] = Trp peptide substrate, percent maximum fold activation
[13] = TAMRA peptide substrate, concentration giving 150% activation of SIRT1
[14] = TAMRA peptide substrate, percent maximum fold activation

SMILES | Trp EC1.5 (μM) (SIRT1 [1]; [7]) | Emax (SIRT1 [1]; [8]) | TAMRA EC1.5 (μM) (SIRT1 [2]; [9]) | Emax (SIRT1 [2]; [10]) | other results
Cc1ncccc1-c1ccc2ncc(C(=O)Nc3ccnc(N4CCCC4)c3)n2n1 [Compound 59] |  |  |  |  | Trp EC1.5 (μM) (SIRT1 [1]; [3]): C (EC1.5>25 μM); Emax (SIRT1 [1]; [4]): < 350%; TAMRA EC1.5 (μM) (SIRT1 [2]; [5]): B (EC1.5 1-25 μM); Emax (SIRT1 [2]; [6]): < 350%
O=C(Nc1ccc(F)cn1)c1cnc2ccc(-c3ccccc3OC(F)(F)F)nn12 [Compound 360] | A (EC1.5<1 μM) | < 350% | B (EC1.5 1-25 μM) | < 350% | 
COc1cc(OC)nc(NC(=O)c2cnc3ccc(-c4ccccc4C(F)(F)F)nn23)n1 [Compound 198] | B (EC1.5 1-25 μM) | < 350% | A (EC1.5<1 μM) | ≥ 350% | 
O=C(Nc1cnn2ccc(-c3ccccc3C(F)(F)F)nc12)c1ncc(F)cc1F [Compound 749] | B (EC1.5 1-25 μM) | < 350% | A (EC1.5<1 μM) | ≥ 350% | 
O=C(Nc1cnn2ccc(-c3ccccc3C(F)(F)F)nc12)c1ccncc1 [Compound 251] | C (EC1.5>25 μM) | < 350% | C (EC1.5>25 μM) | < 350% | 
Cc1cc(-c2ccccc2C(F)(F)F)nn2c(C(=O)Nc3cccc(N4CCOCC4)n3)cnc12 [Compound 192] |  |  |  |  | Trp EC1.5 (μM) (SIRT1 [1]; [3]): A (EC1.5<1 μM); Emax (SIRT1 [1]; [4]): ≥ 350%; TAMRA EC1.5 (μM) (SIRT1 [2]; [5]): A (EC1.5<1 μM); Emax (SIRT1 [2]; [6]): ≥ 350%
O=C(Nc1ccnc(N2CCC2)c1)c1cnc2ccc(-c3c(F)cccc3F)nn12 [Compound 170] |  |  |  |  | Trp EC1.5 (μM) (SIRT1 [1]; [3]): B (EC1.5 1-25 μM); Emax (SIRT1 [1]; [4]): < 350%; TAMRA EC1.5 (μM) (SIRT1 [2]; [5]): A (EC1.5<1 μM); Emax (SIRT1 [2]; [6]): < 350%
Cc1cnc(NC(=O)c2c(C)nn3ccc(-c4ccccc4C(F)(F)F)nc23)cn1 [Compound 710] | A (EC1.5<1 μM) | ≥ 350% | A (EC1.5<1 μM) | ≥ 350% | 
N#Cc1ccccc1-c1ccc2ncc(NC(=O)c3cccc(OCC(O)CO)n3)n2n1 (stereo not shown) [Compound 339] | A (EC1.5<1 μM) | < 350% | A (EC1.5<1 μM) | ≥ 350% | 
N#Cc1ccccc1-c1ccc2ncc(NC(=O)c3cscn3)n2n1 [Compound 332] | C (EC1.5>25 μM) | < 350% | B (EC1.5 1-25 μM) | < 350% | 
Cc1cnc(NC(=O)c2c(C)nc3ccc(-c4ccccc4OC[C@H](O)CO)nn23)s1 [Compound 829] | A (EC1.5<1 μM) | < 350% | A (EC1.5<1 μM) | ≥ 350% | 
O=C(Nc1cnc2ccc(-c3ccccc3C(F)(F)F)nn12)c1cccnc1OCC(O)CO (stereo not shown) [Compound 146] |  |  |  |  | Trp EC1.5 (μM) (SIRT1 [1]; [3]): B (EC1.5 1-25 μM); Emax (SIRT1 [1]; [4]): ≥ 350%; TAMRA EC1.5 (μM) (SIRT1 [2]; [5]): A (EC1.5<1 μM); Emax (SIRT1 [2]; [6]): ≥ 350%
COc1cccc(C(=O)Nc2cnn3ccc(-c4ccccc4C(F)(F)F)nc23)n1 [Compound 521] |  |  |  |  | Trp EC1.5 (SIRT1 [1]; [11]): A (EC1.5<1 μM); Emax (SIRT1 [1]; [12]): < 350%; TAMRA EC1.5 (SIRT1 [2]; [13]): A (EC1.5<1 μM); Emax (SIRT1 [2]; [14]): ≥ 350%
O=C(Nc1cnc2ccc(-c3ccccc3C(F)(F)F)nn12)c1cccc(O)n1 [Compound 467] |  |  |  |  | Trp EC1.5 (SIRT1 [1]; [11]): B (EC1.5 1-25 μM); Emax (SIRT1 [1]; [12]): < 350%; TAMRA EC1.5 (SIRT1 [2]; [13]): B (EC1.5 1-25 μM); Emax (SIRT1 [2]; [14]): ≥ 350%
CN(C)[C@@H]1CCN(c2ccc3ncc(C(=O)Nc4cccc(N5CCOCC5)n4)n3n2)C1 [Compound 511] |  |  |  |  | Trp EC1.5 (SIRT1 [1]; [11]): B (EC1.5 1-25 μM); Emax (SIRT1 [1]; [12]): < 350%; TAMRA EC1.5 (SIRT1 [2]; [13]): B (EC1.5 1-25 μM); Emax (SIRT1 [2]; [14]): < 350%
Cc1cc2ncc(NC(=O)c3cnccn3)n2nc1-c1ccccc1C(F)(F)F [Compound 442] |  |  |  |  | Trp EC1.5 (SIRT1 [1]; [11]): C (EC1.5>25 μM); Emax (SIRT1 [1]; [12]): < 350%; TAMRA EC1.5 (SIRT1 [2]; [13]): A (EC1.5<1 μM); Emax (SIRT1 [2]; [14]): ≥ 350%
